Legend:
Boophilus microplus = Boophilus microplus - injection test; format: in vivo; conditions: application rate 20 μg/animal; injection into engorged adult female ticks; after 7 days
In short: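 Active ingredient in DMSO, 1 μl injected into the abdomen of 5 engorged adult female ticks, then held in a climate-controlled room. Efficacy scored after 7 days from laying of fertile eggs, with non-fertile-looking eggs kept about 42 days for larval hatch; 100% means no fertile eggs.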

Myzus persicae = Myzus persicae - spray test; format: in vivo; conditions: Chinese cabbage leaf discs, after 6 days
In short: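 Chinese cabbage leaf discs carrying all stages of Myzus persicae sprayed with compound in acetone/DMF diluted in water with 1000 ppm emulsifier. Efficacy (% aphids killed) assessed after 6 days.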

Ctenocephalides felis [1] = assay: Ctenocephalides felis - oral test; format: in vivo; conditions: application rate 100 ppm in citrated cattle blood; after 2 days
In short: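 Compound in DMSO diluted into citrated cattle blood, fed through a parafilm membrane to about 20 unfed adult cat fleas. Kill in % scored after 2 days (100% = all dead).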

Lucilia cuprina = Lucilia cuprina test; format: in vivo; conditions: application rate 100 ppm; L1 larvae; after 2 days
In short: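 About 20 L1 larvae placed on minced horsemeat treated with compound, formulated in DMSO and diluted with water to test concentration. Kill in % scored after 2 days (100% = all larvae dead, 0% = none).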

[2] = logP determination by HPLC on a reversed-phase column (C18); format: physicochemical; conditions: for logP^a): HPLC-MS method a); for log P: HPLC-MS; for logP: HPLC, C18 reversed phase, acetonitrile/water with formic acid, EEC Directive 79/831 Annex V.A8
Musca domestica = Musca domestica test; format: in vivo; conditions: application rate 100 ppm; adult houseflies; after 2 days
In short: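 Compound in DMSO, diluted with water, applied to a sugar-solution sponge; vessels hold 10 adult houseflies. Percent mortality scored after 2 days.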

Phaedon cochleariae = Phaedon cochleariae - spray test; format: in vivo; conditions: larvae on Chinese cabbage leaf discs, after 7 days
In short: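 Chinese cabbage leaf discs sprayed with compound formulated in acetone/DMF and water containing 1000 ppm emulsifier; once dry, infested with mustard beetle larvae. Efficacy (% larvae killed) scored after 7 days.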

Tetranychus urticae = Tetranychus urticae - spray test, OP-resistant; format: in vivo; conditions: bean leaf discs, after 6 days
In short: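 Compound dissolved in acetone/DMF, diluted with water containing 1000 ppm alkylaryl polyglycol ether emulsifier to test concentrations. Bean leaf discs infested with all stages of spider mites were sprayed; % kill determined after 6 days (100% = all mites dead, 0% = none).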

Rhipicephalus sanguineus = Rhipicephalus sanguineus - in vitro contact tests with adult brown dog ticks; format: in vivo; conditions: application rate 5 μg/cm2; after 48 h; ticks dead or moribund
Method: For the coating of the test tubes, 9 mg of active ingredient are first dissolved in 1 ml of acetone p.a. and then diluted to the desired concentration with acetone p.a. 250 μl of the solution are distributed homogeneously on the inner walls and base of a 25 ml test tube by turning and rocking on an orbital shaker (rocking rotation at 30 rpm for 2 h). With 900 ppm active ingredient solution and internal surface 44.7 cm^2, given homogeneous distribution, an area-based dose of 5 μg/cm^2 is achieved.
After the solvent has evaporated off, the tubes are populated with 5-10 adult dog ticks (Rhipicephalus sanguineus), sealed with a perforated plastic lid and incubated in a horizontal position in the dark at room temperature and ambient humidity. After 48 h, efficacy is determined. To this end, the ticks are knocked to the floor of the tube and incubated on a hotplate at 45-50° C. for not more than 5 min. Ticks which remain motionless on the floor or move in such an uncoordinated manner that they are unable to deliberately avoid the heat by climbing upwards are considered to be dead or moribund.
An efficacy of 100% means that all the ticks were dead or moribund. 0% efficacy means that none of the ticks had been harmed.

Spodoptera frugiperda = Spodoptera frugiperda - spray test; format: in vivo; conditions: caterpillars on maize leaf discs, after 7 days
In short: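 Maize leaf discs sprayed with compound formulated in acetone/DMF and diluted in water containing 1000 ppm alkylaryl polyglycol ether emulsifier, then infested with armyworm caterpillars after drying. Efficacy scored after 7 days as % caterpillars killed (100% all, 0% none).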

Ctenocephalides felis [3] = assay: Ctenocephalides felis - in vitro contact tests with adult cat fleas; format: in vivo; conditions: application rate 5 μg/cm2 (=500 g/ha); after 48 h; fleas dead or moribund
In short: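 Tubes coated with compound in acetone (250 μl of 900 ppm solution gives 5 μg/cm^2 on 44.7 cm^2), solvent evaporated, then 5–10 adult fleas added and kept horizontal at room temperature and ambient humidity. After 48 h, dead or moribund (motionless/uncoordinated) fleas scored as % efficacy.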

[4] = reversed-phase column (C18), Table I-T3

| Compound | efficacy (laying of fertile eggs) (Boophilus microplus) | efficacy (Myzus persicae; application rate 100 g/ha) | efficacy (kill) (Ctenocephalides felis [1]) | efficacy (kill) (Lucilia cuprina) | logP^a) [2] | logP^a) [2, 4] | efficacy (kill) (Musca domestica) | efficacy (Phaedon cochleariae; application rate 100 g/ha) | efficacy (Tetranychus urticae; application rate 100 g/ha) | efficacy (Rhipicephalus sanguineus) | efficacy (Spodoptera frugiperda; application rate 100 g/ha) | efficacy (Myzus persicae; application rate 500 g/ha) | efficacy (Ctenocephalides felis [3]) | efficacy (Phaedon cochleariae; application rate 500 g/ha) | efficacy (Tetranychus urticae; application rate 500 g/ha) | efficacy (Spodoptera frugiperda; application rate 500 g/ha) | logP^a) ([2]; reversed-phase column (C18)) | log P [2, 4] | logP [2] | efficacy (Myzus persicae; application rate 20 g/ha) |
| --- | --- | --- | --- | --- | --- | --- | --- | --- | --- | --- | --- | --- | --- | --- | --- | --- | --- | --- | --- | --- |
| CCc1cc(C(F)(C(F)(F)F)C(F)(F)F)ccc1-n1cc(-c2ccc(Cl)c(C(=O)NC3(C#N)CC3)c2)cn1 [I-T3-38] | 100% | 90% | 100% | 100% | 4.5 | 4.5 | 100% | 100% | 100% | 80% | 100% |  |  |  |  |  |  |  |  |  |
| CCc1cc(C(F)(C(F)(F)F)C(F)(F)F)cc(C)c1-n1cc(-c2ccc(Cl)c(C(=O)NC3(C#N)CC3)c2)cn1 [I-T3-46] | 100% |  | 100% | 100% | 4.6 | 4.6 | 100% |  |  | 100% |  | 100% | 100% | 100% | 100% | 100% |  |  |  |  |
| O=C(NC1CC1)c1cc(-c2cnn(-c3c(Cl)cc(OC(F)(F)F)cc3Cl)c2)ccc1Cl [I-T3-88] | 100% | 100% | 100% | 100% | 3.6 | 3.6 | 80% | 100% | 100% | 80% | 100% |  | 100% |  |  |  |  |  |  |  |
| COc1ncc(-c2cnn(-c3c(C)cc(C(F)(C(F)(F)F)C(F)(F)F)cc3C)c2)cc1C(=O)NC1CC1 [I-T3-143] | 100% |  | 100% | 100% |  |  | 100% | 100% |  | 80% | 100% |  | 100% |  |  |  | 4.6 | 4.6 |  |  |
| Cc1cc(C(F)(C(F)(F)F)C(F)(F)F)cc(C(F)(F)F)c1-n1cc(-c2ccc(Cl)c(C(=S)NC3CC3)c2)cn1 [I-T3-161, 2-chloro-N-cyclopropyl-5-[1-[2-methyl-4-[1,2,2,2-tetrafluoro-1-(trifluoromethyl)ethyl]-6-(trifluoromethyl)phenyl]pyrazo-4-yl]benzenecarbothioamide] | 100% |  | 100% | 100% |  |  | 100% | 100% | 100% | 100% | 100% |  |  |  |  |  | 5.0 | 5.0 | 5.0 |  |
| O=C(NC1CC1)c1cc(-c2cnn(-c3c(Cl)cc(C(F)(C(F)(F)F)C(F)(F)F)cc3OC(F)(F)F)c2)cnc1Cl [I-T3-189] |  | 100% | 100% | 100% |  |  | 100% | 100% | 100% | 100% | 100% |  | 100% |  |  |  |  | 4.3 |  |  |
| O=C(NC1CC1)c1cc(-c2cnn(-c3c(Cl)cc(C(F)(C(F)(F)F)C(F)(F)F)cc3OC(F)F)c2)cnc1Cl [I-T3-196] |  |  |  |  |  |  |  |  |  | 100% |  |  | 100% |  |  |  |  | 3.9 |  |  |
| Cc1cc(C(F)(C(F)(F)F)C(F)(F)F)cc(C)c1-c1cnn(-c2ccc(Cl)c(C(=O)NC3(C#N)CC3)c2)c1 [I-T4-2] | 100% |  | 100% | 100% |  |  | 100% | 100% | 100% | 100% | 100% |  | 100% |  |  |  |  |  | 4.6 | 90% |

— patent US10150737B2, “Compounds for controlling arthropods” (priority 2013, dated 2018)
